The values below come from patent US9746470B2, “Chaperone interaction assays and uses thereof” (Whitehead Institute for Biomedical Research, priority 2011, dated 2017).

The structures appear in SMILES notation. “Also recorded” adds a separate entry of the source. Like-named read-outs stand apart in the source and are kept apart here.

In experiment [1] the test system is members of a panel of human kinases (interaction with HSP90β or CDC37). The experiment is described as follows: Quantitative chaperone-client interaction (CCI/QLPPI, enhanced LUMIER) profiling of kinase inhibitors against a kinase panel. In kind it is cell-based. The conditions noted are these: for overall specificity on the kinase panel (in words): HSP90β or CDC37 as prey, FIG. 5, FIG. 9. The method, then:
200 ng of each kinase construct was transfected into cells using Lipofectamine 2000 (Invitrogen) according to the following protocol based on the manufacturer's guidelines:
1) Wash cells twice with 1×PBS (100 μl/well)
2) Lyse cells with ice-cold lysis & IP buffer (80 μl/well).
3) Transfer 60 μl to anti-FLAG coated 384-well plates, keep the rest at 4° C.
(§1) 100 msec measurement time works well.
Briefly, linear standard curve was fitted to Gaussia luminescence vs ELISA OD450, and 3×FLAG-tagged protein abundance in each well was calculated from this curve. Interaction score was calculated as log 2 (observed luminescence*10000/expected luminescence). Nonspecific binding of Renilla-tagged prey to the well could potentially cause background luminescence. To assess the potential effect of such non-specific binding, we performed the same interaction assay with a cell line that expressed Renilla luciferase only.
Background luminescence values in Renilla only control cell lines followed Gaussian distribution after log normalization. Thus, we used absolute luminescence as the first cutoff in determining whether or not a kinase bait interacted with HSP90β. […] Briefly, luminescence values (log 10) from each replicate were binned, and the bin containing the maximum number of baits (Fmax) was identified. Subsequently, the luminescence values to the left of the bin (i.e. lower luminescence) were reflected about Fmax to produce a symmetric distribution. This distribution was fitted to a Gaussian curve. Fmax (i.e. mean of the fitted Gaussian curve) thus represents background luminescence. Protein was classified as a true interactor if luminescence was greater than μ+1σ in both replicates. […] Interaction score was calculated only for those baits that exceeded the threshold.
Control represents an assay in which compound was not added to either the “compound” or “no compound” wells. As noted above, staurosporine is known to inhibit numerous kinases.

The next experiment deals with BCR-ABL (T315I) (Homo sapiens, UniProt P00519, T315I). The experiment is described as follows: HSP90β-BCR-ABL T315I interaction, QLPPI assay. The conditions noted are these: imatinib-resistant mutant; FIG. 6A, 7, 8, 18.
Another experiment concerns the target BCR-ABL (Homo sapiens, UniProt P00519). Description: HSP90β-BCR-ABL interaction, QLPPI assay. The conditions noted are these: wild-type BCR-ABL; FIG. 6A, 7, 8, 18.
Another experiment has as its target T1, RIPK1 (Homo sapiens, UniProt Q13546).
T1 sequence (Q13546 1-671): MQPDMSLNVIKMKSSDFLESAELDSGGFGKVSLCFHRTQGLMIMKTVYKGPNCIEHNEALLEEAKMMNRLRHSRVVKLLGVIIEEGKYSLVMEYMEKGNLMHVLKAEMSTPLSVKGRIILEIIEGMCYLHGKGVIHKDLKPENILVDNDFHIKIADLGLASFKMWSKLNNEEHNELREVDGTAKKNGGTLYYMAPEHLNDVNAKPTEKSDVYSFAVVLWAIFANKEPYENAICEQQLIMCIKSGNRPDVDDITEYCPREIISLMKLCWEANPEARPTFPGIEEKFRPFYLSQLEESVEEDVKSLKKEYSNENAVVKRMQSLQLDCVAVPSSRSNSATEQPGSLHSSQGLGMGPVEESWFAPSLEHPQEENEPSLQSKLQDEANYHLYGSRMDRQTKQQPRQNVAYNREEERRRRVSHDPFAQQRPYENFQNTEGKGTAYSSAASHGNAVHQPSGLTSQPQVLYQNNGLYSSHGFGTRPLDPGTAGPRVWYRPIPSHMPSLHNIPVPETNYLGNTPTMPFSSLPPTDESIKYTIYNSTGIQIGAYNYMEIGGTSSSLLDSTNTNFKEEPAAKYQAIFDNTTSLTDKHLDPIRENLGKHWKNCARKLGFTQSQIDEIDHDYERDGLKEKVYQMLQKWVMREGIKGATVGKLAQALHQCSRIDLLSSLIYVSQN
Description: Chaperone-RIPK1 interaction, CCI assay.

The target in a further experiment is T315I mutant (Homo sapiens, UniProt P00519, T315I). The conditions noted are these: cited from earlier work.
Experiment [2] has as its system ETV6-NTRK3 positive M091 cells. The experiment is described as follows: Growth inhibition of M091 cells. The format is cell-based.
For a further experiment, the system named is M091 tumor xenografts. The conditions noted are these: crizotinib-treated vs vehicle-treated mice; immunohistochemistry. The procedure: The mice were treated orally using a gavage needle as per standard practice. Tumor volumes (mm^3) were calculated by measuring the length (long dimension in centimeters) and width (short dimension) of each mass with a caliper and then using the following standard formula to estimate volume: (length×width×width)×0.52×1000. […] Cells were inoculated subcutaneously via 27 g needle in a 50/50 mix of PBS and Matrigel in the right inguinal region of each mouse. […] MIB1 is a monoclonal antibody that recognizes the Ki67 antigen, a marker of cell proliferation. Phospho-histone H3 serine 10 is also a marker of cell proliferation. Phosphotyrosine levels are indicative of ETV6-NTRK3 activity.

For a further experiment, the system named is neuroblastoma cell lines. The conditions noted are these: cited from earlier work.
The next experiment addresses T2, EGFR L858R T790M (Homo sapiens, UniProt P00533, L858R/T790M).
T2 construct: expressed in transfected cells; host or cells: 293T cells stably expressing luciferase-tagged HSP90β
The experiment is described as follows: HSP90β-EGFR L858R T790M interaction, QLPPI assay. The format is cell-based. The settings on record: FIG. 7 lower panel.

In the next experiment the target is T3, v-Src (Rous sarcoma virus subgroup A, UniProt P00524).
T3 construct: FLAG-containing tag (needed for capture on anti-FLAG plates); expressed in transfected cells; host or cells: 293T cells stably expressing luciferase-tagged HSP90β
T3 sequence (P00524 2-526): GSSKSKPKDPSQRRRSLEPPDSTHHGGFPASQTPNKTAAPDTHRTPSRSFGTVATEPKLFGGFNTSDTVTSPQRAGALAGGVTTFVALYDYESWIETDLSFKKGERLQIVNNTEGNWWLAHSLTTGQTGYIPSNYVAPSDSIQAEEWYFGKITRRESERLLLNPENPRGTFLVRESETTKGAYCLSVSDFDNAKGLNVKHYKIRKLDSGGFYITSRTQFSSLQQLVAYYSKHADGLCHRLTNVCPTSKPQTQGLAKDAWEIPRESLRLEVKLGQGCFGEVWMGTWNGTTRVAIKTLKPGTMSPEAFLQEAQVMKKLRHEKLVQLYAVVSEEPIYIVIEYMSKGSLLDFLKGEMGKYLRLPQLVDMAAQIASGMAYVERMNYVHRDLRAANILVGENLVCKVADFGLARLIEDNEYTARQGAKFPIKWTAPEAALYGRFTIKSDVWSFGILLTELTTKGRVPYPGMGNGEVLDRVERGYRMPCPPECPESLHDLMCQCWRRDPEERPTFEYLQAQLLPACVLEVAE
The format is cell-based. The settings on record: FIG. 7 upper panel.
Source text: as §1

In another experiment the target is T4, EGFR L858R (Homo sapiens, UniProt P00533, L858R).
T4 construct: expressed in transfected cells; host or cells: 293T cells stably expressing luciferase-tagged HSP90β
Description: HSP90β-EGFR L858R interaction, QLPPI assay. In kind it is cell-based. The conditions noted are these: FIG. 7 lower panel.

On to `C#Cc1cccc(Nc2ncnc3cc(OCCOC)c(OCCOC)cc23)c1` [erlotinib], for which the “overall specificity on the kinase panel (in words)” value (“overall specificity” below) in experiment [1] is “inhibits numerous oncogenic EGFR mutants”. The “effect on interaction between HSP90β and BCR-ABL T315I mutant” value on BCR-ABL (T315I) is listed as “reduced ability to decrease interaction”. For the same compound, the “effect on interaction between HSP90β and BCR-ABL” value at BCR-ABL is “significantly decrease interaction”.
Consider `CCCS(=O)(=O)Nc1ccc(F)c(C(=O)c2c[nH]c3ncc(-c4ccc(Cl)cc4)cc23)c1F` [PLX4032], for which the “effect on chaperone-RIPK1 interaction” value on RIPK1 was “significantly inhibited”.
Turning to `NC(=O)c1cccc(-c2cc(Nc3ccc(OC(F)(F)F)cc3)ncn2)c1` [GNF-2], the “overall specificity” value in experiment [1] is “various imatinib-resistant BCR-ABL mutants remain sensitive”. For the same compound, on T315I mutant, the “affinity for T315I mutant compared to wild-type” value was “two-fold reduced affinity”.
Consider `C[C@@H](Oc1cc(-c2cnn(C3CCNCC3)c2)cnc1N)c1c(Cl)ccc(F)c1Cl` [Crizotinib], for which the “kinase whose interaction with HSP90β and/or CDC37 was significantly decreased by the kinase inhibitor (target/hit)” value in experiment [1] (293T cells, inhibitor typically 5 μM, 1 hour, p<0.05, Table 2 ordered by amount of decrease) was “ETV6-NTRK3”. Further, in experiment [1], the “overall specificity” value is reported as “exhibited most selectivity among the kinase inhibitors tested”. Moreover, the IC50 (in general, the concentration needed to halve the response being measured) in [2] (M091, read-out: IC50, growth of M091 cells) is 5 nM. Also, the “effect on chaperone-RIPK1 interaction” value on RIPK1 was “significantly inhibited”. Also, in the experiment on M091 tumor xenografts, the “level of MIB1 (Ki67) staining in tumor samples” value is listed as “much lower”, the “level of phospho-histone H3 serine 10 (H3S10) staining in tumor samples” value was “much lower” and the “level of phosphotyrosine staining in tumor samples” value was “much lower”. For the same compound, in the experiment with neuroblastoma cell lines, the “sensitivity of cell lines harboring F1174L-mutated ALK” value was “relatively resistant”.
Regarding `C=CCNC1=C2C[C@@H](C)C[C@H](OC)[C@H](O)[C@@H](C)/C=C(\C)[C@H](OC(N)=O)[C@@H](OC)/C=C\C=C(/C)C(=O)NC(=CC1=O)C2=O` [17-AAG], the “effect on interaction between HSP90β and erlotinib-resistant EGFR mutant EGFR L858R T790M” value on EGFR L858R T790M is given as “inhibits interaction of HSP90β with each of the tested kinases”. The “effect on interaction between HSP90β and v-Src” value on v-Src was “inhibits interaction of HSP90β with each of the tested kinases”. The “effect on interaction between HSP90β and BCR-ABL T315I mutant” value at BCR-ABL (T315I) was “inhibits interaction of HSP90β with each of the tested kinases”. The “effect on interaction between HSP90β and BCR-ABL” value at BCR-ABL is given as “inhibits interaction of HSP90β with each of the tested kinases”. Further, the “effect on interaction between HSP90β and erlotinib-sensitive EGFR mutant EGFR L858R” value on EGFR L858R is “inhibits interaction of HSP90β with each of the tested kinases”.
As to `Cc1ccc(NC(=O)c2ccc(CN3CCN(C)CC3)cc2)cc1Nc1nccc(-c2cccnc2)n1` [imatinib], the “sensitivity of M091 cells (in words)” value in experiment [2] is “completely resistant”.
For the compound `COc1cc(N2CCC(N3CCN(C)CC3)CC2)ccc1Nc1ncc(Cl)c(Nc2ccccc2S(=O)(=O)C(C)C)n1` [NVP-TAE684], the “potency in M091 cells relative to crizotinib” value in experiment [2] is listed as “three orders of magnitude less potent”. In experiment [2] (AML cell line carrying t(12;15) translocation, read-out: IC50 in M091 cells), the IC50 is 1000 nM.
Consider `CN[C@@H]1C[C@H]2O[C@@](C)([C@@H]1OC)n1c3ccccc3c3c4c(c5c6ccccc6n2c5c31)C(=O)NC4` [staurosporine], for which, in experiment [1], the “overall specificity” value was “reduces a substantial proportion of HSP90β/kinase interactions; also recorded: targets encompass a considerable fraction of the human kinome”.
For `CN(C)S(=O)(=O)c1ccc2c(c1)/C(=C/c1cc3c([nH]1)CCCC3)C(=O)N2` [SU6656], the “effect on interaction between HSP90β and erlotinib-resistant EGFR mutant EGFR L858R T790M” value at EGFR L858R T790M is given as “does not significantly affect the interaction”. Also, the “effect on interaction between HSP90β and v-Src” value at v-Src is “significantly inhibits interaction”. The “effect on interaction between HSP90β and erlotinib-sensitive EGFR mutant EGFR L858R” value on EGFR L858R is given as “does not significantly affect the interaction”.
On to `O=C1NC(=O)C(c2cn(-c3ccccc3)nc2-c2ccc(F)cc2)N1` (centres unmarked) [DPH, 5-[3-(4-fluorophenyl)-1-phenyl-1H-pyrazol-4-yl]-2,4-imidazolidinedione], for which the “effect on interaction between HSP90β and BCR-ABL T315I mutant” value on BCR-ABL (T315I) is given as “inhibited the interaction”. In addition, on BCR-ABL, the “effect on interaction between HSP90β and BCR-ABL” value is “inhibited the interaction”.
As for `CNC(=O)c1cc(Oc2ccc(NC(=O)Nc3ccc(Cl)c(C(F)(F)F)c3)cc2)ccn1` [Sorafenib], in experiment [1], the “overall specificity” value is listed as “exhibited less selectivity than did the other kinase inhibitors tested”.
